Reference: patent US20140031309A1, “Beta-L-N4 Hydroxycytosine Deoxynucleosides and their use as Pharmaceutical Agents in the Prophylaxis or Therapy of Viral Diseases” (MAX-DELBRUECK-CENTRUM FUER MOLEKULARE MEDIZIN, priority 2004, published 2014)
pEC50, pIC50: −log10 of the molar value. Several values for one entry are separate records, joined by “and”; a condition that tells them apart may be missing. Identical values can stand only once. Like-named read-outs stand apart in the source and are kept apart here.

What was measured:
[1] = test system: HBV; test: Inhibition of HBV-replication in HepG2 2.2.15 cells (extracellular HBV DNA, PCR); assay type: cell-based, hepatitis B virus; settings: read-out: EC50, concentration required for 50% reduction of HBV DNA in the medium of the cells
Experimental: The antiviral efficacy of the compounds of the invention was investigated on HepG2 2.2.15 cells, a human hepatoblastoma cell line which has the replication-competent HBV genome stably integrated therein and produces infectious progeny viruses in a productive manner (Sells et al., Proc Natl Acad Sci USA 1987, 84: 1005-1009).
The above cells were cultured under standardized conditions as specified by Korba and Gerin, and the amount of extracellular viral DNA was determined (Korba et al., Antiviral Res 1992, 19: 55-70).
Following passaging, the HepG2 2.2.15 cells were seeded at a density of about 60% in 12-well plates and cultured to confluence in 10% FBS Dulbecco MEM. Thereafter, the medium was changed to 2% FBS, and the cells were cultured for another 24 hours.
After another change of medium, the cells were treated with varying concentrations of compounds according to the invention. Every 24 hours the compounds were re-added together with the medium. On the 6th day of treatment, the cell supernatants were centrifuged off and stored at −20° C. until analysis of the HBV DNA was effected.
Following treatment of the culture supernatants with proteinase K, the extracellular viral DNA was amplified by means of PCR using the following primers (forward: 5′-CTCCAGTTCAGGAACAGTAAACCC-3′(SEQ ID NO. 1); reverse: 5′-TTGTGAGCTCAGAAAGGCCTTGTAAGTTGGCG-3′(SEQ ID NO. 2). The PCR products were separated on 1% agarose, stained with ethidium bromide and quantified using a Fluor-S™ Multimager (Biorad).
For calibration of the PCR reaction, serial dilutions of the pUC19 HBV and pTHBV plasmids with known genome equivalents (GE) were used, resulting in a lower detection limit of about 10^3 GE and a linearity between 10^3 and 10^5 GE.

[2] = test system: HepG2-cells; test: Cytotoxicity, inhibition of proliferation of HepG2 cells; assay type: cell-based, human; settings: for CD50, concentration producing 50% inhibition of cell proliferation: two days incubation; for antiproliferative activity: in words
Experimental: (§1) To this end, established cells of a human myeloid leukemia (HL-60) in RPMI medium, and the above-mentioned HepG2 cells in Dulbecco MEM, respectively, were incubated for two days using varying concentrations of compounds, and the proliferation rate of the cells was subsequently determined. The data were used to determine the concentration of compounds resulting in 50% inhibition of proliferation (CD50).

[3] = test system: HL-60 cells; test: Cytotoxicity, inhibition of proliferation of HL-60 cells; assay type: cell-based, human; settings: for CD50, concentration producing 50% inhibition of cell proliferation: two days incubation; for antiproliferative activity: in words
Experimental: as §1

[4] = test system: HIV; test: Inhibition of HIV replication; assay type: cell-based; settings: read-out: EC50 against HIV replication
[5] = target: T1, HBV DNA polymerase (Hepatitis B virus genotype D subtype ayw, UniProt P03156); test: Inhibition of endogenous HBV DNA polymerase by nucleoside triphosphates; assay type: biochemical; settings: virus particles from patient serum, 3H-dCTP, 1 h 37° C., read-out: IC50, 50% inhibition of the HBV DNA polymerase activity
T1 construct: the endogenous HBV DNA polymerase activity; from tissue; host or cells: serum of patients with untreated hepatitis B virus infection; virus particles purified by ultracentrifugation and lysed
Experimental: To determine the endogenous HBV DNA polymerase activity, about 100 ml of serum from patients with untreated hepatitis B virus infections from Charité, Berlin, (>10^7 HBV particles/ml), was centrifuged at 3000 rpm. Virus particles of the cleared serum were sedimented in a Beckman SW28 rotor at 25,000 rpm, 60 min. The virus pellet was suspended in 7 ml of TKM buffer (50 mM Tris-HCl, pH 7.5, 50 mM KCl, 5 mM MgCl2), layered over a step gradient of 10 ml each of 0.3 M, 0.6 M, 0.9 M saccharose in TKM buffer and centrifuged at 25,000 rpm for 20 hours.
The purified virus pellet was suspended in 250 μl TKM buffer, lysed by ultrasound, divided in aliquots and frozen at −80° C. (Davies et al., Antiviral Res 1996, 30: 133-145).
The HBV DNA polymerase assay contained in 30 μl about 2-4×10^8 purified virus particles (lysed beforehand additionally in 6% β-mercaptoethanol, 10% Igepal for 15 min at room temperature), 42 mM Tris-HCl, (pH 7.5), 34 mM MgCl2, 340 mM KCl, 22 mM β-mer-captoethanol, 0.4% Igepal, 70 μM TTP, dATP, dGTP and 1 μCi ^3HdCTP (=0.7 μM dCTP) (Matthes et al., Antimicrob Agents & Chemother 1991, 35: 1254-1257) and varying concentrations of β-L-N4-hydroxycytosine nucleoside triphosphates as inhibitors.
Following a one-hour incubation at 37° C., 20 μl of the assay volume was placed on paper filter, washed 5 times with 5% trichloroacetic acid and 0.1% Na pyrophosphate, and the ^3H-dCMP incorporated in the HBV DNA was subsequently measured in a Liquid Scintillation Counter.
Using the concentration-dependent inhibition curves of HBV DNA synthesis, the concentration of β-L-N4-hydroxycytosine nucleoside triphosphates resulting in 50% inhibition of the HBV DNA polymerase activity was determined.

[6] = test system: HBV; settings: treatment of HBV infections; cited from earlier work
[7] = HepG2 2.2.15 cells, 6 days incubation, extracellular HBV DNA

T1 sequence (P03156 whole entry): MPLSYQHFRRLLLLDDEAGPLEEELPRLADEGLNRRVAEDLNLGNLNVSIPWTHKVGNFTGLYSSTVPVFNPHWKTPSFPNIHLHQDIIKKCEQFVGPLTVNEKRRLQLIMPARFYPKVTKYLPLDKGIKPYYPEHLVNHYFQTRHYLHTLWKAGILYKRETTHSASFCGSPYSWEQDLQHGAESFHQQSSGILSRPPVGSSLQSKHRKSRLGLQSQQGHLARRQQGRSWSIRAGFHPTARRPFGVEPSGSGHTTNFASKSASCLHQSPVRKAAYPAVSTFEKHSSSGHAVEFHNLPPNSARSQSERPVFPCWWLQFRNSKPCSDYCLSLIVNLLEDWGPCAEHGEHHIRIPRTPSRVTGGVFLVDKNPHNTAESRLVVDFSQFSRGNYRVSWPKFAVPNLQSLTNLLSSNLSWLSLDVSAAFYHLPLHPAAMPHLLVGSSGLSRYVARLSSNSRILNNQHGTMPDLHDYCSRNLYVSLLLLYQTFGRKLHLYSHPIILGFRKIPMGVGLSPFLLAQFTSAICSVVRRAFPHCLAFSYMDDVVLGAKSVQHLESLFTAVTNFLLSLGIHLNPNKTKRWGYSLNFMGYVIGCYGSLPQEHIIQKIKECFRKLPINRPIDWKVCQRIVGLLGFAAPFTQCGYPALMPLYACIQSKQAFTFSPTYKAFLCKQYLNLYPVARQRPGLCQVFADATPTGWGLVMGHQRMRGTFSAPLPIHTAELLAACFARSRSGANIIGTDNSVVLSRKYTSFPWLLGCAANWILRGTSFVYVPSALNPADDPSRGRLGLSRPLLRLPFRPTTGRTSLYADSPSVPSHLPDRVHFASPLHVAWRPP

| Molecule | CD50, concentration producing 50% inhibition of cell proliferation [2] [µM] | CD50, concentration producing 50% inhibition of cell proliferation [3] [µM] | pEC50 [1, 7] | also measured |
| --- | --- | --- | --- | --- |
| Nc1ccn([C@@H]2CS[C@H](CO)O2)c(=O)n1 [3TC (lamivudine), β-L-2′,3′-dideoxy-3′-thiacytidine, reference compound] | 1900 | 2000 |  | pEC50 ([1]; Hepatitis B virus, HepG2 2.2.15, 144 h): 7.00 |
| O=c1nc(NO)ccn1[C@H]1CS[C@@H](CO)O1 [Hy3TC, β-L-2′,3′-dideoxy-3′-thia-N4-hydroxycytidine] | 1230 | 1450 | 6.30 | pEC50 [4]: < 4.60 |
| O=c1nc(NO)c(F)cn1[C@H]1CS[C@@H](CO)O1 [HyFTC, β-L-2′,3′-dideoxy-3′-thia-5-fluoro-N4-hydroxycytidine] | 975 | 1100 | 6.52 |  |
| Nc1nc(=O)n([C@@H]2C[C@@H](O)[C@H](CO)O2)cc1F [L-FCdR, β-L-5-fluorodeoxycytidine, reference compound] |  |  | 5.92 |  |
| O=c1nc(NO)ccn1[C@@H]1C[C@@H](F)[C@H](CO)O1 [L-FHyCdR, β-L-3′-fluoro-2′,3′-dideoxy-N4-hydroxycytidine] | 820 | 4400 |  |  |
| O=c1nc(NO)ccn1[C@@H]1C[C@@H](O)[C@H](CO)O1 [L-HyCdR, β-L-N4-hydroxydeoxycytidine] | 545 | 460 | 5.52 |  |
| O=c1nc(NO)c(F)cn1[C@@H]1C[C@@H](O)[C@H](CO)O1 [L-HyFCdR, β-L-5-fluoro-N4-hydroxydeoxycytidine] | 920 | 1370 | 5.35 |  |
| O=c1nc(NO)ccn1[C@H]1O[C@@H](CO)C=C1F [L-HyFddeC, β-L-2′,3′-didehydro-2′,3′-dideoxy-2′-fluoro-N4-hydroxycytidine] | 1370 | 1130 | > 7.00 | antiproliferative activity [2]: lost the antiproliferative activity; antiproliferative activity [3]: lost the antiproliferative activity |
| Cc1cn([C@@H]2C[C@@H](O)[C@H](CO)O2)c(=O)nc1NO [L-HyMetCdR, β-L-5-methyl-N4-hydroxydeoxycytidine] | 490 | 600 |  |  |
| O=c1nc(NO)ccn1[C@@H]1CC[C@H](CO)O1 [L-HyddC, β-L-2′,3′-dideoxy-N4-hydroxycytidine] | 2250 | 1600 |  | antiproliferative activity [2]: lost the antiproliferative activity; antiproliferative activity [3]: lost the antiproliferative activity |
| O=c1nc(NO)c(F)cn1[C@@H]1CC[C@H](CO)O1 [L-HyddFC, β-L-2′,3′-dideoxy-5-fluoro-N4-hydroxycytidine] | 1580 | 1860 | 6.46 |  |
| O=c1nc(NO)ccn1[C@@H]1C=C[C@H](CO)O1 [L-HyddeC, β-L-2′,3′-didehydro-2′,3′-dideoxy-N4-hydroxycytidine] | >5000 | >3500 | 7.30 |  |
| O=c1nc(NO)c(F)cn1[C@@H]1C=C[C@H](CO)O1 [L-HyddeFC, β-L-2′,3′-didehydro-2′,3′-dideoxy-5-fluoro-N4-hydroxycytidine] |  |  | > 7.00 | antiproliferative activity [2]: lost the antiproliferative activity; antiproliferative activity [3]: lost the antiproliferative activity |
| [N-]=[N+]=N[C@@H]1C[C@@H](n2ccc(NO)nc2=O)O[C@H]1CO [L-N3HyCdR, β-L-3′-azido-2′,3′-dideoxy-N4-hydroxycytidine] | 1160 | 2000 |  |  |
| Cc1cn([C@@H]2C[C@@H](O)[C@H](CO)O2)c(=O)[nH]c1=O [L-TdR, β-L-thymidine, reference compound] |  |  |  | pEC50 ([1]; Hepatitis B virus, 144 h, HepG2 2.2.15 cells, 6 days incubation, extracellular HBV DNA): 6.52 |
| Nc1ccn([C@@H]2CC[C@H](CO)O2)c(=O)n1 [L-ddC, β-L-2′,3′-dideoxycytidine, reference compound] |  |  | 6.60 |  |
| O=c1nc(NO)ccn1[C@@H]1CS[C@H](COP(=O)(O)OP(=O)(O)OP(=O)(O)O)O1 [Triphosphate of L-Hy3TC] |  |  |  | pIC50 [5]: 6.19 to 6.82 and 6.19 |
| O=c1nc(NO)ccn1[C@@H]1C[C@@H](O)[C@H](COP(=O)(O)OP(=O)(O)OP(=O)(O)O)O1 [Triphosphate of L-HyCdR] |  |  |  | pIC50 [5]: 5.22 |
| Cc1cn([C@@H]2C[C@@H](O)[C@H](COP(=O)(O)OP(=O)(O)OP(=O)(O)O)O2)c(=O)nc1NO [Triphosphate of L-HyMetCdR] |  |  |  | pIC50 [5]: 5.40 |
| O=c1nc(NO)ccn1[C@@H]1CC[C@H](COP(=O)(O)OP(=O)(O)OP(=O)(O)O)O1 [Triphosphate of L-HyddC] |  |  |  | pIC50 [5]: 6.19 to 6.82 and 6.26 |
| O=c1nc(NO)ccn1[C@@H]1C=C[C@H](COP(=O)(O)OP(=O)(O)OP(=O)(O)O)O1 [Triphosphate of L-HyddeC] |  |  |  | pIC50 [5]: 6.19 to 6.82 and 6.55 |
| α-interferon |  |  |  | share of the patients in whom it is effective [6]: about 33% |
